# Assay results reported in the supplement of paper PMC13380429.
# Key:
# Settings in all cases: 72 h
# [1] = system: HepG2; experiment: cell viability relative to DMSO; higher = less toxic
# [2] = system: Calu-3; experiment: as above
# [3] = system: Vero E6; experiment: as above
# [4] = system: U2OS; experiment: as above
# [5] = system: HepG2; experiment: relative viability EC50 (midpoint between 100% and the lowest measured viability); higher = less toxic
# [6] = system: Calu-3; experiment: as above
# [7] = system: Vero E6; experiment: as above
# [8] = system: U2OS; experiment: as above
# [9] = system: HepG2; experiment: drug sensitivity score (DSS) for viability; higher = more toxic; extreme values may be limits of the assay
# [10] = system: Calu-3; experiment: as above
# [11] = system: Vero E6; experiment: as above
# [12] = system: U2OS; experiment: as above
# [13] = system: Caco-2; experiment: cell viability relative to DMSO; higher = less toxic
# [14] = system: Caco-2; experiment: drug sensitivity score (DSS) for viability; higher = more toxic; extreme values may be limits of the assay
Structure (SMILES),cell viability ([1]; 1 nM) [%],cell viability ([1]; 10 nM) [%],cell viability ([1]; 100 nM) [%],cell viability ([1]; 1000 nM) [%],cell viability ([1]; 10000 nM) [%],cell viability ([2]; 1 nM) [%],cell viability ([2]; 10 nM) [%],cell viability ([2]; 100 nM) [%],cell viability ([2]; 1000 nM) [%],cell viability ([2]; 10000 nM) [%],cell viability ([3]; 1 nM) [%],cell viability ([3]; 10 nM) [%],cell viability ([3]; 100 nM) [%],cell viability ([3]; 1000 nM) [%],cell viability ([3]; 10000 nM) [%],cell viability ([4]; 1 nM) [%],cell viability ([4]; 10 nM) [%],cell viability ([4]; 100 nM) [%],cell viability ([4]; 1000 nM) [%],cell viability ([4]; 10000 nM) [%],relative viability EC50 [5] [µM],relative viability EC50 [6] [µM],relative viability EC50 [7] [µM],relative viability EC50 [8] [µM],drug sensitivity score [9],drug sensitivity score [10],drug sensitivity score [11],drug sensitivity score [12],cell viability ([13]; 1 nM) [%],cell viability ([13]; 10 nM) [%],cell viability ([13]; 100 nM) [%],cell viability ([13]; 1000 nM) [%],cell viability ([13]; 10000 nM) [%],drug sensitivity score [14]
CC(C)c1cc2c(cc1S(=O)(=O)O)[C@@]1(C)CCC[C@@](C)(C(=O)O)[C@@H]1CC2 [ecabet],105,110,93.8,112,104,109,107,112,110,99.5,96.4,96.1,96.9,96.9,107,96.7,93.7,99.1,95,103,> 10,> 10,> 10,> 10,0,0,0,0,,,,,,
C#Cc1cccc(Nc2ncnc3cc(OCCOC)c(OCCOC)cc23)c1 [erlotinib],108,122,104,97.8,58.2,107,109,86.2,52,30.1,111,104,92,73.4,26.8,96.7,96.4,94.2,93.5,82.9,,0.453,1.36,> 10,2.4,10.6,7.1,0.4,105,92.5,98.2,79.7,54.2,4.7
C[C@]12CC[C@@H]3c4ccc(OC(=O)c5ccccc5)cc4CC[C@H]3[C@@H]1CC[C@@H]2O [estradiol-benzoate],104,118,103,105,97.8,101,96.4,98.6,94.3,88.6,,,,,,108,105,106,103,99.8,> 10,> 10,,> 10,0,0,,0,,,,,,
N=C(N)N [guanidine],101,117,101,96.2,105,,,,,,76.8,106,82.2,110,69.3,105,106,105,99.9,108,> 10,,,> 10,0,,0.9,0,,,,,,
C=CC(C)(C)c1cc(/C=C/C(=O)c2ccc(O)cc2)c(OC)cc1O [licochalcone-A],99.9,100,74.4,99.2,78.4,96.1,100,106,98.1,91.7,103,101,90.2,98,102,95.7,96.5,100,95.8,88.7,,> 10,> 10,> 10,1.5,0,0,0.1,92.4,83,105,88,70.8,2.8
COc1ccc(C(C)(C)C)cc1CN[C@H]1C2CCN(CC2)[C@H]1C(c1ccccc1)c1ccccc1 [maropitant],107,104,98.9,100,11.6,108,104,110,101,1.7,100,106,100,101,62.6,99.5,98.9,101,93.9,67.3,3.17,3.24,,,4.9,5.4,1.7,2.5,103,96.4,101,103,67.4,1.3
C[C@H](N)[C@H](O)c1cccc(O)c1 [metaraminol],97.9,102,100,97.2,103,90.4,96.8,98.7,99.9,91.9,105,101,108,97.5,102,,,,,,> 10,> 10,> 10,,0,0,0,,,,,,,
Cc1cccc(C)c1OCC(C)N (centres undefined) [mexiletine],,,,,,,,,,,,,,,,,,,,,,,,,0.1,0,0,0,,,,,,
CCCCCCCCOc1ccccc1C(=O)Nc1ccc(C(=O)OCC[N+](C)(CC)CC)cc1 [otilonium],109,96.2,108,96,83.8,97,104,91.1,96.7,89.3,103,97.2,106,97.8,94.1,101,106,98,101,90.7,> 10,> 10,> 10,> 10,0.7,0,0,0,89.1,99.4,97,97.5,74.7,1.4
OCCN1CCN(CCCN2c3ccccc3Sc3ccc(Cl)cc32)CC1 [perphenazine],114,100,94.7,96,59.3,95.6,93.5,106,101,77.2,107,96.4,100,99.8,71.5,101,97,101,99.3,90.6,,> 10,,> 10,2.7,0.7,1.2,0,99.4,100,94.8,72.7,69.8,5.1
COc1ccc(C(=O)c2c(C)n(CCN3CCOCC3)c3ccccc23)cc1 [pravadoline],100,99.9,108,100,99.5,,,,,,106,107,105,100,95.7,92,97.4,95.5,99.7,55.5,> 10,,> 10,,0,,0,2.3,104,99.7,91.9,95.1,50.8,3.4
O=C(C1CCCCC1)N1CC(=O)N2CCc3ccccc3C2C1 (centres undefined) [praziquantel],107,90.7,107,94.3,82.3,102,96.9,104,98.9,91.7,103,102,106,99.1,106,99,104,100,101,97.5,> 10,> 10,> 10,> 10,1,0,0,0,109,112,100,109,70.7,0.9
CCOC(=O)[C@H](CCc1ccccc1)N[C@@H](C)C(=O)N1[C@H](C(=O)O)C[C@@H]2CCC[C@@H]21 [ramipril],,,,,,,,,,,,,,,,,,,,,,,,,0,0,0,0,,,,,,
C=CC(=O)Nc1cccc(Nc2nc(Nc3ccc(N4CCN(C(C)=O)CC4)cc3OC)ncc2C(F)(F)F)c1 [rociletinib],106,96.1,90.2,79.2,42.3,95.6,88.6,88.3,57.8,16.6,105,99.7,99.4,101,83,100,93.9,101,88,16.7,1.38,0.822,> 10,2.03,5.3,10,0.3,6.6,97.4,95.9,98.3,92.3,62.6,3.1
Cc1cc(C)nc(NS(=O)(=O)c2ccc(N)cc2)n1 [sulfamethazine],,,,,,,,,,,,,,,,,,,,,,,,,0,0,0,0,,,,,,
Nc1ccc(S(=O)(=O)Nc2cnc3ccccc3n2)cc1 [sulfaquinoxaline],,,,,,,,,,,,,,,,,,,,,,,,,0,0.4,0,0,,,,,,
C[C@H](NC(=O)C(C)(C)Oc1ccc(C(F)(F)F)cn1)[C@@H](Cc1ccc(Cl)cc1)c1cccc(C#N)c1 [taranabant],105,106,111,103,72.4,96.5,95.5,94.4,107,86.6,103,96.5,99.6,97.8,85.5,100,95.8,96.3,95.2,90.9,,> 10,> 10,> 10,1,0,0.4,0,97.3,108,105,94.4,73.4,1.9
O[C@@H](COc1cccc2ncccc12)CN1CCN([C@@H]2c3ccccc3[C@@H]3[C@H](c4ccccc42)C3(F)F)CC1 [zosuquidar],104,98.8,95.6,92.4,63.1,102,108,91.5,96.1,85.7,104,105,98.7,98.5,72.6,99,99.4,99.4,98.2,76.2,,> 10,,> 10,3,0.1,1.3,1.1,99.5,102,87.8,90.2,55.2,3.6
